# System: cholesterol concentration in the blood
# Assay: Blood cholesterol reduction in rats fed a cholesterol/sodium cholate diet
# Type: in vivo
# Conditions: male rats, diet with 1% cholesterol and 0.25% sodium cholate for 3 days, control group = 0, normal group = 100
# Experimental: A completely synthetic diet containing 1% of cholesterol, 0.25% of sodium cholate and 0.003%, 0.01%, 0.03% and 0.1% of the test compound is given to a group of 6 male rats having a body weight of about 50 g consecutively for 3 days, and the rats are fasted overnight. Then, the rats are decapitated and their blood collected to determine the cholesterol concentration in the blood. The concentration of cholesterol in the blood is measured with Technicon Autoanalyzer (Technicon Laboratory: Method File N-24a).
# Each value shown in the Table is a relative value determined based on the supposition that the value of the control group (the cholesterol-administered group) is 0 and the value of the normal group (the non-cholesterol-administered group) is 100.
smiles,measurement,setting,value
CC(C)C1CCC2=C(CCC3C(C)(C(=O)Nc4ccccc4)CCCC23C)C1 (stereo not shown) [Δ^8 -Dihydroabietanilide],% Inhibition,dose in diet 0.003%,18%
same,% Inhibition,dose in diet 0.01%,22%
same,% Inhibition,"dose in diet 0.03%, * significant at 1% level",56%
same,% Inhibition,"dose in diet 0.1%, * significant at 1% level",93%

# Source: patent US4024280A, “Abietanilides, their production and use” (Nippon Shinyaku Co., Ltd., priority 1974, dated 1977)
